Consider ten compounds from patent US9586925B2 (priority 2013, dated 2017).

Like-named read-outs stand apart in the source and are kept apart here.

The target of assay [1] is Human recombinant acetylcholinesterase (Homo sapiens (Human), UniProt P22303). In words: biochemical.
For assay [2], the target named is human recombinant butyrylcholinesterase (Homo sapiens (Human), UniProt P06276). Put plainly: biochemical. In kind it is biochemical.
The next assay has as its system Male Wistar rats. The class given is in vivo. As to conditions: rat.

Sequence of Human recombinant acetylcholinesterase (P22303 32-614 limits assumed): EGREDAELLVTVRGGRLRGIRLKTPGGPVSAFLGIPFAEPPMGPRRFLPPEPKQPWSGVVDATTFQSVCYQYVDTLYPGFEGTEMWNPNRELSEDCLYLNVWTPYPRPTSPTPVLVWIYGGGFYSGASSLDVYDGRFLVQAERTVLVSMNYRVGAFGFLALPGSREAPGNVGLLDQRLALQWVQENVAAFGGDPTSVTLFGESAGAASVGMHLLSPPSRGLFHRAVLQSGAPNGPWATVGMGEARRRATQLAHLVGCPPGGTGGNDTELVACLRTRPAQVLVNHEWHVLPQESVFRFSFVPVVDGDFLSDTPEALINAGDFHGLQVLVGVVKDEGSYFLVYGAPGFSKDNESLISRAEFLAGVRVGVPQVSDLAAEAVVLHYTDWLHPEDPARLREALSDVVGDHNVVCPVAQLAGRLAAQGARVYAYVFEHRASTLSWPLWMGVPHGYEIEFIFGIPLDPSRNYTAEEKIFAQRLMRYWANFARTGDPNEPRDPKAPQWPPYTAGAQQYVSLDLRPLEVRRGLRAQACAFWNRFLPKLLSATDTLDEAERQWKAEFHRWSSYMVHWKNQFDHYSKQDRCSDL
Sequence of human recombinant butyrylcholinesterase (P06276 29-602 limits assumed): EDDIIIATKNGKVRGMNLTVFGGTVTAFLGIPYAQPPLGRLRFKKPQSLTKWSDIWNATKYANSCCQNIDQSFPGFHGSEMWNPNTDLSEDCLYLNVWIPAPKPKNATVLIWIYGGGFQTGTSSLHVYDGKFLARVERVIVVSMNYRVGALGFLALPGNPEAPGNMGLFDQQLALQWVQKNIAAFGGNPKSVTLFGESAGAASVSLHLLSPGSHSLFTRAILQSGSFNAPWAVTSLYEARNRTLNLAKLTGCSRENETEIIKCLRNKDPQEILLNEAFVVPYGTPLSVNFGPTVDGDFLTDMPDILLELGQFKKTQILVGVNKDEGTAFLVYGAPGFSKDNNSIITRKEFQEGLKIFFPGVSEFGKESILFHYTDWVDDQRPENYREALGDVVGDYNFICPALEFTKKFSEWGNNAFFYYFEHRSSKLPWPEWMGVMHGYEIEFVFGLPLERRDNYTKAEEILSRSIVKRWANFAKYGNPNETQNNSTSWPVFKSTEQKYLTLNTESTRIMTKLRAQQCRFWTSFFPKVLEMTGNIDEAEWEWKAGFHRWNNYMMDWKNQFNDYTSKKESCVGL

Turning to `CC(c1cc(O)c2c(c1)oc(=O)c1ccccc12)N(C)C` (racemic) [FAR-01-2OH, (±)-3-(1-(dimethylamino)ethyl)-1-hydroxy-6H-benzo[c]chromen-6-one], the IC50 in assay [1] is 18.9 µM. In assay [2], the “BCHE inhibitory potential in comparison to the current drugs (galantamine, rivastigmine, donepezil)” value (“BCHE inhibitory potential in comparison” below) was “at least comparable and/or better inhibitory potential” and the IC50 stood at 4.2 µM. The “Reverse (%) (percentage antagonism of scopolamine-induced latency deficit)” value in the assay with Male Wistar rats (in vivo) was 49%.
With `COc1cc(C(C)N(C)C)c2c(c1)oc(=O)c1ccccc12` (racemic) [FAR-01-1, (±)-1-(1-(dimethylamino)ethyl)-3-methoxy-6H-benzo[c]chromen-6-one], in assay [2], the IC50 came out at 24.7 µM.
For the compound `CCN(C)C(=O)Oc1cc(C(C)N(C)C)c2c(c1)oc(=O)c1ccccc12` (racemic) [FAR-01-1CA, (±)-1-(1-(dimethylamino)ethyl)-6-oxo-6H-benzo[c]chromen-3-yl ethyl(methyl)carbamate], the IC50 in assay [1] is > 40 µM. Further, in assay [2], the “BCHE inhibitory potential in comparison” value is given as “at least comparable and/or better inhibitory potential”; the IC50 amounted to 8.5 µM; the “selectivity BCHE versus ACHE” value is “possess selectivity to inhibit the BCHE”.
On to `COc1cc2c(cc1OC)C(=O)C(CC1CCN(Cc3ccccc3)CC1)C2` (stereo not shown) [Donepezil, reference compound], for which the “Reverse (%) (percentage antagonism of scopolamine-induced latency deficit)” value with Male Wistar rats (in vivo) is given as 52%.
Regarding `CC(c1cc(O)cc2oc(=O)c3ccccc3c12)N(C)C` (racemic) [FAR-01-1OH, (±)-1-(1-(dimethylamino)ethyl)-3-hydroxy-6H-benzo[c]chromen-6-one], the IC50 in assay [1] was 33.1 µM; in assay [2] it was > 40 µM.
As for `C[C@@H](c1ccc2c(c1)oc(=O)c1ccccc12)N(C)C` [FAR-02-2S, (S)-3-(1-(dimethylamino)ethyl)-6H-benzo[c]chromen-6-one], the values for the IC50 in assay [1] (read-out: ACHE Inhibitory Activity IC50) and in assay [2] (read-out: BCHE Inhibitory Activity IC50) were 7.9 µM and 16.2 µM, respectively. The “Reverse (%) (percentage antagonism of scopolamine-induced latency deficit)” value in the assay with Male Wistar rats (in vivo) was 71%.
For `CC(c1ccc2c(c1)oc(=O)c1ccccc12)N(C)C` (racemic) [FAR-02-2RS, (±)-3-(1-(dimethylamino)ethyl)-6H-benzo[c]chromen-6-one], the concentration for half-maximal inhibition (IC50) in assay [1] was determined as 10.9 µM; in assay [2] it was 17.9 µM. Besides, the “Reverse (%) (percentage antagonism of scopolamine-induced latency deficit)” value in the assay on Male Wistar rats (in vivo) was found to be 70%.
The corresponding values for `COc1cc(C(C)N(C)C)cc2oc(=O)c3ccccc3c12` (racemic) [FAR-01-2, (±)-3-(1-(dimethylamino)ethyl)-1-methoxy-6H-benzo[c]chromen-6-one] are 2.8 µM, 21.1 µM and 71%.
On to `CCN(C)C(=O)Oc1cccc([C@H](C)N(C)C)c1` [Rivastigmine, reference compound], for which the “Reverse (%) (percentage antagonism of scopolamine-induced latency deficit)” value with Male Wistar rats (in vivo) is 85%.
Regarding `CCN(C)C(=O)Oc1cc(C(C)N(C)C)cc2oc(=O)c3ccccc3c12` (racemic) [FAR-01-2CA, (±)-3-(1-(dimethylamino)ethyl)-6-oxo-6H-benzo[c]chromen-1-yl ethyl(methyl)carbamate], in assay [2], the “BCHE inhibitory potential in comparison” value is given as “at least comparable and/or better inhibitory potential” and the IC50 was determined as 12.7 µM. For the same compound, the “Reverse (%) (percentage antagonism of scopolamine-induced latency deficit)” value with Male Wistar rats (compound 1 mg/kg oral, scopolamine 1 mg/kg i.p., latency measured for 5 minutes) is listed as 53%.

Broadly, the IC50 is the concentration at which inhibition is half-maximal.
